{"source": "patent US20260364099A1", "about": "“GLYCYRRHIZIC ACID HYDROGELS” (KATHOLIEKE UNIVERSITEIT LEUVEN, priority 2023, published 2026)", "key": {"Streptococcus": {"system": "Streptococcus", "assay": "Antibacterial effect (no effect, bacteriostatic, bactericidal); growth inhibition followed by biocidal plating", "format": "cell-based, Streptococcus pyogenes LMG 14237", "conditions": "bactericidal = 3 LOG reduction compared to the inoculum", "experimental": "(§1) The below table summarises the antibacterial effect (no effect, bacteriostatic, bactericidal) of the glycyrrhizic acid hydrogels on different pathogens tested.\nThe bactericidal effect of 0.5 mL/mL of 5 wt % hydrogel A (shown in grey bars with circles) is compared to growth medium with an adjusted pH (pH 5.2) that is associated with the acidifying effect of hydrogel A (shown in white bars with squares). ns: p>0.05, ****p<0.0001. […]\n(§2) Three different formulations of the glycyrrhizic acid hydrogels were made in dH2O: (i) Hydrogel C with pH=3, (ii) Hydrogel B with pH=3.8 and (iii) Hydrogel A with pH=4.2. pH was measured at 70 °C and varied using HCl or NaOH to acidify or alkalify the formulation to the desired pH-value. […]\n(§3) To avoid evaporation, the plates were sealed using a membrane (Greiner Bio-one NV). After 24 hours of incubation (37 °C, 200 rpm), the OD595 was measured and relative OD595 was calculated by dividing the OD595 by the average OD595 of the growth control (=growth of cells in MHB without glycyrrhizic acid). […]"}, "Enterococcus": {"system": "Enterococcus", "assay": "Antibacterial effect (no effect, bacteriostatic, bactericidal); growth inhibition followed by biocidal plating", "format": "cell-based, Enterococcus faecalis LMG8148", "conditions": "bactericidal = 3 LOG reduction compared to the inoculum", "experimental": "as §1\nThe bactericidal effect of 0.5 mL/mL of 10 wt % hydrogel C (shown in grey bars with circles) is compared to growth medium with an adjusted pH (pH 4.6) that is associated with the acidifying effect of hydrogel C (shown in white bars with squares). ****p<0.0001. […]\nas §2, §3"}, "MRSA": {"system": "MRSA", "assay": "Growth inhibition evaluation (relative OD595)", "format": "cell-based, methicillin resistant S. aureus (MRSA), clinical isolate", "conditions": "25 mg/mL glycyrrhizic acid in solution or 0.5 mL/mL of 5 wt % hydrogel, 24 h, 37 °C", "experimental": "(§4) The growth inhibiting effect of 25 mg/mL glycyrrhizic acid in solution and 0.5 mL/mL of 5 wt % hydrogel A, corresponding with a total of 25 mg/mL of glycyrrhizic acid in the system are shown in grey bars with circles. Both are compared to suitable controls (shown in white bars with squares) i.e. growth media with an adjusted pH that is associated with the acidifying effect of glycyrrhizic acid in solution (pH 7.4) and hydrogel A (pH 5.2) but without the presence of glycyrrhizic acid in solution or hydrogel A, respectively. ns: p>0.05, *p<0.05, **p<0.01, ****p<0.0001. […]\nas §2\n(§5) To avoid evaporation, the plates were sealed using a membrane (Greiner Bio-one NV). After 24 hours of incubation (37 °C, 200 rpm), the OD595 was measured and relative OD595 was calculated by dividing the OD595 by the average OD595 of the growth control (=growth of cells in MHB without glycyrrhizic acid)."}, "[1]": {"system": "Staphylococcus epidermidis", "assay": "Growth inhibition evaluation (relative OD595)", "format": "cell-based, clinical isolate", "conditions": "25 mg/mL glycyrrhizic acid in solution or 0.5 mL/mL of 5 wt % hydrogel, 24 h, 37 °C", "experimental": "as §4, §2, §5"}, "Acinetobacter baumanni": {"system": "Acinetobacter baumanni", "assay": "Growth inhibition evaluation (relative OD595)", "format": "cell-based, Acinetobacter baumannii RD5SR3", "conditions": "25 mg/mL glycyrrhizic acid in solution or 0.5 mL/mL of 5 wt % hydrogel, 24 h, 37 °C", "experimental": "as §4, §2, §5"}, "Pseudomonas aeruginosa": {"system": "Pseudomonas aeruginosa", "assay": "Growth inhibition evaluation (relative OD595)", "format": "cell-based, Pseudomonas aeruginosa LMG9009", "conditions": "25 mg/mL glycyrrhizic acid in solution or 0.5 mL/mL of 5 wt % hydrogel, 24 h, 37 °C", "experimental": "as §4, with “B,” for “A,”, “B” for “A”, “5)” for “5.2)”, “p>0.05,” for “p>0.05, *p<0.05, **p<0.01,”\nas §2, §5"}, "Escherichia coli [2]": {"system": "Escherichia coli", "assay": "Growth inhibition evaluation (relative OD595)", "format": "cell-based, Escherichia coli UTI89", "conditions": "50 mg/mL glycyrrhizic acid in solution or 0.5 mL/mL of 10 wt % hydrogel, 24 h, 37 °C", "experimental": "as §4, with “of 50” for “of 25”, “of 10” for “of 5”, “hydrogel C,” for “hydrogel A,”, “hydrogel C” for “hydrogel A”, “(pH 4.6)” for “(pH 5.2)”, “p>0.05,” for “p>0.05, *p<0.05, **p<0.01,”\nas §2, §5"}, "Klebsiella pneumoniae": {"system": "Klebsiella pneumoniae", "assay": "Growth inhibition evaluation (relative OD595)", "format": "cell-based, Klebsiella pneumoniae ATCC13883", "conditions": "50 mg/mL glycyrrhizic acid in solution or 0.5 mL/mL of 10 wt % hydrogel, 24 h, 37 °C", "experimental": "as §4, with “of 50” for “of 25”, “of 10” for “of 5”, “hydrogel C,” for “hydrogel A,”, “hydrogel C” for “hydrogel A”, “(pH 4.6)” for “(pH 5.2)”, “p>0.05,” for “p>0.05, *p<0.05, **p<0.01,”\nas §2, §5"}, "Klebsiella aerogenes": {"system": "Klebsiella aerogenes", "assay": "Growth inhibition evaluation (relative OD595)", "format": "cell-based, Klebsiella aerogenes ATCC13048", "conditions": "50 mg/mL glycyrrhizic acid in solution or 0.5 mL/mL of 10 wt % hydrogel, 24 h, 37 °C", "experimental": "as §4, with “of 50” for “of 25”, “of 10” for “of 5”, “hydrogel C,” for “hydrogel A,”, “hydrogel C” for “hydrogel A”, “(pH 4.6)” for “(pH 5.2)”, “p>0.05,” for “p>0.05, *p<0.05, **p<0.01,”\nas §2, §5"}, "S. pyogenes": {"system": "S. pyogenes", "assay": "Growth inhibition evaluation (relative OD595)", "format": "cell-based, Streptococcus pyogenes LMG 14237", "experimental": "The glycyrrhizic acid concentration is calculated based on the percentage of glycyrrhizic acid in the gel and the amount of this gel used in the assay. Note that the pH at the gel surface is lower than the initial pH of the growth medium on top of the gel due to the acidifying effect of the hydrogel. This pH difference is dependent of the pH of the hydrogel, the percentage of glycyrrhizic acid in the hydrogel and the amount of hydrogel used. The different hydrogels are indicated by color: white circles represent the hydrogel A, grey circles represent hydrogel B and black circles represent the hydrogel C. The 2 grey dots at pH 7.0 in the plot represent the (lack of) activity of glycyrrhizic acid in solution. Of all nine pathogens tested, only Streptococcus pyogenes was inhibited by 50 mg/mL glycyrrhizic acid in solution.\nThe growth inhibiting effect of 25 mg/mL glycyrrhizic acid in solution and 0.5 mL/mL of 5 wt % hydrogel A, corresponding with a total of 25 mg/mL of glycyrrhizic acid in the system are shown in grey bars with circles. […]\nas §2"}, "E. faecalis": {"system": "E. faecalis", "assay": "Growth inhibition evaluation (relative OD595)", "format": "cell-based, Enterococcus faecalis LMG8148", "conditions": "25 mg/mL glycyrrhizic acid in solution or 0.5 mL/mL of 5 wt % hydrogel, 24 h, 37 °C", "experimental": "as §4, §2, §5"}, "Escherichia coli [3]": {"system": "Escherichia coli", "conditions": "cited from earlier work"}, "Proteus vulgaris": {"system": "Proteus vulgaris", "conditions": "cited from earlier work"}, "Candida albicans": {"system": "Candida albicans", "conditions": "cited from earlier work"}, "Streptococci": {"system": "Streptococci", "conditions": "cited from earlier work"}}}
{"compound": "CC1(C)[C@@H](O[C@H]2O[C@H](C(=O)O)[C@@H](O)[C@H](O)[C@H]2O[C@@H]2O[C@H](C(=O)O)[C@@H](O)[C@H](O)[C@H]2O)CC[C@]2(C)[C@H]3C(=O)C=C4[C@@H]5C[C@@](C)(C(=O)O)CC[C@]5(C)CC[C@@]4(C)[C@]3(C)CC[C@@H]12", "note": "[glycyrrhizic acid]", "values": [{"measurement": "antibacterial effect (no effect, bacteriostatic, bactericidal)", "setting": "Streptococcus", "result": "Bacterio-"}, {"measurement": "antibacterial effect (no effect, bacteriostatic, bactericidal)", "setting": "Enterococcus", "result": "No effect"}, {"measurement": "growth inhibiting activity", "setting": "MRSA", "result": "lack of/limited growth inhibiting activity"}, {"measurement": "growth inhibiting activity", "setting": "[1]", "result": "lack of/limited growth inhibiting activity"}, {"measurement": "growth inhibiting activity", "setting": "Acinetobacter baumanni", "result": "lack of/limited growth inhibiting activity"}, {"measurement": "growth inhibiting activity", "setting": "Pseudomonas aeruginosa", "result": "lack of/limited growth inhibiting activity"}, {"measurement": "growth inhibiting activity", "setting": "Escherichia coli [2]", "result": "lack of/limited growth inhibiting activity"}, {"measurement": "growth inhibiting activity", "setting": "Klebsiella pneumoniae", "result": "lack of/limited growth inhibiting activity"}, {"measurement": "growth inhibiting activity", "setting": "Klebsiella aerogenes", "result": "lack of/limited growth inhibiting activity"}, {"measurement": "complete growth inhibition (FIG. 1)", "setting": "S. pyogenes; 50 mg/mL glycyrrhizic acid in solution, only Streptococcus pyogenes of nine pathogens", "result": "inhibited"}, {"measurement": "growth inhibiting activity", "setting": "S. pyogenes; S. pyogenes, 25 mg/mL glycyrrhizic acid in solution or 0.5 mL/mL of 5 wt % hydrogel, 24 h, 37 °C", "result": "lack of/limited growth inhibiting activity"}, {"measurement": "growth inhibiting activity", "setting": "E. faecalis", "result": "lack of/limited growth inhibiting activity"}, {"measurement": "antibacterial potential in solution", "setting": "Escherichia coli [3]", "result": "lack of activity"}, {"measurement": "antibacterial potential in solution", "setting": "Proteus vulgaris", "result": "lack of activity"}, {"measurement": "antibacterial potential in solution", "setting": "Candida albicans", "result": "lack of activity"}, {"measurement": "antibacterial potential in solution", "setting": "Streptococci", "result": "lack of activity"}]}
